Experimental data as given in ChEMBL document CHEMBL1138451, “Significance of interactions of BACE1-Arg235 with its ligands and design of BACE1 inhibitors with P2 pyridine scaffold” (Bioorg Med Chem Lett, 2009).

How the values were obtained:
Beta-secretase 1 [1] = target: T1, Beta-secretase 1 (Homo sapiens, UniProt P56817); test: Inhibition of human recombinant Arg235 region of BACE1 at 2 uM by FRET assay
Beta-secretase 1 [2] = target: T1, Beta-secretase 1; test: Inhibition of human recombinant Arg235 region of BACE1 at 0.2 uM by FRET assay
Beta-secretase 1 [3] = target: T1, Beta-secretase 1; test: Inhibition of human recombinant Arg235 region of BACE1 by FRET assay

T1 sequence (P56817 whole entry): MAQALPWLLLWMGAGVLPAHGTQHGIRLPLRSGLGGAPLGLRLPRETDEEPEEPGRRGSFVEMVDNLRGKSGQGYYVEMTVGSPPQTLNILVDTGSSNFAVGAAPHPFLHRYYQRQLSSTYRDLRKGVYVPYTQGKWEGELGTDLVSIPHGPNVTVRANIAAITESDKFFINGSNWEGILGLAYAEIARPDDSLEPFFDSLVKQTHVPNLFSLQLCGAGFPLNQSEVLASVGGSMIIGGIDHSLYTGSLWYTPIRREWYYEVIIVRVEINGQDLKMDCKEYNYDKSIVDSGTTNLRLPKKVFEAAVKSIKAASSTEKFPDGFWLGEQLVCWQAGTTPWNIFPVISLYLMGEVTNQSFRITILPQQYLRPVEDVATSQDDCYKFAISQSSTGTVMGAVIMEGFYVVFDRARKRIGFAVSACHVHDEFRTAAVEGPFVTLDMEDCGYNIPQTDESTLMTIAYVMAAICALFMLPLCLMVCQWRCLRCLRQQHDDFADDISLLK

Row | SMILES | inhibition (Beta-secretase 1 [1]) | inhibition (Beta-secretase 1 [2]) | IC50 (Beta-secretase 1 [3])
1 | O=C(N[C@@H](Cc1ccccc1)[C@H](O)C(=O)Nc1cccc(-c2nn[nH]n2)c1)c1cc(Br)cc(C(=O)N2COC[C@@H]2c2ccc(F)cc2)n1 | 99% | 93% | 
2 | O=C(N[C@@H](Cc1ccccc1)[C@H](O)C(=O)Nc1cccc(-c2nnn[nH]2)c1)c1cc(I)cc(C(=O)N2COC[C@@H]2c2ccc(F)cc2)n1 |  |  | 10 nM
3 | O=C(N[C@@H](Cc1ccccc1)[C@H](O)C(=O)Nc1cccc(-c2nn[nH]n2)c1)c1cc(Cl)cc(C(=O)N2COC[C@@H]2c2ccc(F)cc2)n1 | 99% | 91% | 13 nM
4 | O=C(N[C@@H](Cc1ccccc1)[C@H](O)C(=O)Nc1cccc(-c2nn[nH]n2)c1)c1cccc(C(=O)N2COC[C@@H]2c2ccccc2)n1 | 89% |  | 
5 | O=C(N[C@@H](Cc1ccccc1)[C@H](O)C(=O)Nc1cccc(-c2nnn[nH]2)c1)c1cc(Br)cc(C(=O)N2COC[C@@H]2c2ccccc2)n1 |  |  | 15 nM
6 | O=C(N[C@@H](Cc1ccccc1)[C@H](O)C(=O)Nc1cccc(-c2nnn[nH]2)c1)c1cc(Br)cc(C(=O)N2COC[C@@H]2c2ccc(F)cc2)n1 |  |  | 9 nM
7 | O=C(N[C@@H](Cc1ccccc1)[C@H](O)C(=O)Nc1cccc(-c2nn[nH]n2)c1)c1cc(I)cc(C(=O)N2COC[C@@H]2c2ccc(F)cc2)n1 | 99% | 92% | 

More lines, now with the values ahead:

Row | inhibition (Beta-secretase 1 [1]) | inhibition (Beta-secretase 1 [2]) | IC50 (Beta-secretase 1 [3]) | SMILES
8 | 98% | 87% |  | O=C(N[C@@H](Cc1ccccc1)[C@H](O)C(=O)Nc1cccc(-c2nn[nH]n2)c1)c1cc(Cl)cc(C(=O)N2COC[C@@H]2c2ccccc2)n1
9 | 99% | 88% |  | O=C(N[C@@H](Cc1ccccc1)[C@H](O)C(=O)Nc1cccc(-c2nn[nH]n2)c1)c1cc(Br)cc(C(=O)N2COC[C@@H]2c2ccccc2)n1
10 | 99% | 86% | 24 nM | O=C(N[C@@H](Cc1ccccc1)[C@H](O)C(=O)Nc1cccc(-c2nn[nH]n2)c1)c1cc(I)cc(C(=O)N2COC[C@@H]2c2ccccc2)n1
11 |  |  | 22 nM | O=C(N[C@@H](Cc1ccccc1)[C@H](O)C(=O)Nc1cccc(-c2nnn[nH]2)c1)c1cc(Cl)cc(C(=O)N2COC[C@@H]2c2ccccc2)n1
